Data reported in PubChem BioAssay (NCI).
“And” between values parts separate entries of the source, which are not always exact repeats. Equal entries are not always repeated.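 A five-concentration, 48-hour dose response in 96-well plates underlies each endpoint, interpolated linearly between surrounding concentrations. GI50 marks 50% less growth. TGI is the concentration that stops growth completely.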

Each compound was assayed on OVCAR-3 ovarian (assay: NCI anticancer screen, dose series, 48 h).

Which TGI does the source give for CCCCc1c(OC)cc(O)c2c1C(=O)c1[nH]c(C(=O)O)c(O)c(=O)c1C2=O here?
Its TGI is 8.45 µM.

CCN1CCN(c2ccc(Nc3cc(N(C)C(=O)Nc4c(Cl)c(OC)cc(OC)c4Cl)ncn3)cc2)CC1 was tested. Which GI50 did it give?
The GI50 was 5.67 µM.

And the TGI?
The TGI was 15.9 µM.

What does the source list for CC(C)c1ccc(Nc2ccc3c(OCCCN4CCN(C)CC4)cccc3n2)cc1?
GI50: 14.4 µM; TGI: 27.5 µM

What does the source list for COc1ccc2c(c1)C(C)Cc1c(Cl)ncnc1N2C (configuration not stated)?
GI50: 0.268 µM; TGI: 0.75 µM

What does the source list for COCCOc1cc(F)c2c(Nc3ccc(NC(=O)Cn4cc(C(C)C)nn4)cc3)ncnc2c1?
GI50: > 100 µM; TGI: > 100 µM

What does the source list for C#Cc1cccc(Nc2ncnc3cc(OC)c(OCCCCCCC(=O)NO)cc23)c1?
GI50: 0.129 µM; TGI: 1.64 µM

For Cc1nnc(S(=O)(=O)c2ccc(N=Nc3c(N)nc(N)nc3N)cc2)s1, which TGI is on record?
Its TGI is > 100 µM.

What does the source list for O=c1n(CC2CO2)c(=O)n(CC2CO2)c(=O)n1CC1CO1 (configuration not stated)?
GI50: 20.6 µM and 13.1 µM; TGI: 108 µM and 40.2 µM

Which results are given for Cc1ccc(C(SCC(N)C(=O)O)(c2ccccc2)c2ccc(C)cc2)cc1 (configuration not stated)?
GI50: 0.192 µM; TGI: 2.64 µM

COc1cc(Nc2cn[nH]c2-c2ccc(Cl)cc2)cc(OC)c1OC was tested. Which GI50 did it give?
Its GI50 is 3.44 µM.

What about the TGI of the same compound?
Its TGI is 14.4 µM.

With O=C(c1ccccc1)c1cc(Cl)ccc1OCCCCN1CCN(CCCCOc2ccc(Cl)cc2C(=O)c2ccccc2)CC1 as the compound, how does the GI50 read?
The GI50 was 2.36 µM.

And the TGI?
Its TGI is 5.78 µM.

Which GI50 does the source give for CNCCNc1c2c(c(NCCNC)c3c(CN(C)C)c[nH]c13)C(=O)c1ccccc1C2=O here?
Its GI50 is 1.03 µM.

What about the TGI of the same compound?
Its TGI is 6.8 µM.

Which GI50 does the source give for O=C1NC(=Nc2ccccc2)S/C1=C\c1ccc2ncccc2c1 here?
The GI50 was 1.11 µM.

What about the TGI of the same compound?
Its TGI is > 25 µM.

With C/C1=C\CC[C@@]2(C)O[C@@H]2[C@H]2OC(=O)[C@@H](CN(C)C)[C@@H]2CC1 as the compound, how does the GI50 read?
The GI50 was 12.1 µM.

And the TGI?
Its TGI is 32.4 µM.

How did the GI50 turn out when Oc1ccc(Cl)cc1Cc1cc(Cl)cc(Cl)c1O was run?
The GI50 was 2.83 µM.

What about the TGI of the same compound?
The TGI was 16.5 µM.

C=C(C=O)C1CCC2(C(=O)O)CCC3(C)C(CCC4C5(C)CCC(O)C(C)(C)C5CCC43C)C12 (configuration not stated) was tested. Which GI50 did it give?
The GI50 was 1.44 µM.

What about the TGI of the same compound?
The TGI was 2.87 µM.

What does the source list for COc1ccc(N2C(=O)C(c3ccccc3)(c3ccccc3)C23C(=O)N(C)c2ccccc23)cc1 (configuration not stated)?
GI50: > 100 µM; TGI: > 100 µM

For CC(C)=C[C@@H]1C[C@H](C)[C@H]2CC[C@H](C)C3=C2[C@](O)(OC3=O)[C@]1(C)O, which GI50 is on record?
The GI50 was > 100 µM.

And the TGI?
The TGI was > 100 µM.

How did the GI50 turn out when C/C(=C\CCc1ccoc1)CC/C=C(\C)CCCC1=CC(=O)OC1 was run?
The GI50 was 9.69 µM.

What about the TGI of the same compound?
The TGI was 25 µM.

How did the TGI turn out when O=c1c2ccccc2[se]n1-c1cccnc1 was run?
The TGI was > 100 µM.

These compounds were tested on SF-539 CNS (assay: NCI anticancer screen, dose series, 48 h).

With CCCCc1c(OC)cc(O)c2c1C(=O)c1[nH]c(C(=O)O)c(O)c(=O)c1C2=O as the compound, how does the TGI read?
Its TGI is 2.54 µM.

CCN1CCN(c2ccc(Nc3cc(N(C)C(=O)Nc4c(Cl)c(OC)cc(OC)c4Cl)ncn3)cc2)CC1 was tested. Which GI50 did it give?
The GI50 was 3.11 µM.

And the TGI?
The TGI was 7.99 µM.

What does the source list for CC(C)c1ccc(Nc2ccc3c(OCCCN4CCN(C)CC4)cccc3n2)cc1?
GI50: 11.1 µM; TGI: 30 µM

Which results are given for COc1ccc2c(c1)C(C)Cc1c(Cl)ncnc1N2C (configuration not stated)?
GI50: 0.471 µM; TGI: 18.8 µM

Which results are given for COCCOc1cc(F)c2c(Nc3ccc(NC(=O)Cn4cc(C(C)C)nn4)cc3)ncnc2c1?
GI50: 6.41 µM; TGI: > 100 µM

Which results are given for C#Cc1cccc(Nc2ncnc3cc(OC)c(OCCCCCCC(=O)NO)cc23)c1?
GI50: 0.198 µM; TGI: 1.34 µM

With Cc1nnc(S(=O)(=O)c2ccc(N=Nc3c(N)nc(N)nc3N)cc2)s1 as the compound, how does the TGI read?
Its TGI is > 100 µM.

O=c1n(CC2CO2)c(=O)n(CC2CO2)c(=O)n1CC1CO1 (configuration not stated) was tested. Which GI50 did it give?
Its GI50 is 2.92 µM.

And the TGI?
The TGI was 41.6 µM and 24.7 µM.

With Cc1ccc(C(SCC(N)C(=O)O)(c2ccccc2)c2ccc(C)cc2)cc1 (configuration not stated) as the compound, how does the GI50 read?
The GI50 was 0.129 µM.

And the TGI?
The TGI was 2.47 µM.

Which results are given for COc1cc(Nc2cn[nH]c2-c2ccc(Cl)cc2)cc(OC)c1OC?
GI50: 4.48 µM; TGI: 24.7 µM

How did the GI50 turn out when O=C(c1ccccc1)c1cc(Cl)ccc1OCCCCN1CCN(CCCCOc2ccc(Cl)cc2C(=O)c2ccccc2)CC1 was run?
The GI50 was 4.8 µM.

And the TGI?
Its TGI is 15.6 µM.

Which GI50 does the source give for CNCCNc1c2c(c(NCCNC)c3c(CN(C)C)c[nH]c13)C(=O)c1ccccc1C2=O here?
The GI50 was 4.46 µM.

And the TGI?
Its TGI is 17.1 µM.

Which GI50 does the source give for O=C1NC(=Nc2ccccc2)S/C1=C\c1ccc2ncccc2c1 here?
The GI50 was > 6.25 µM.

And the TGI?
The TGI was > 25 µM.

What does the source list for C/C1=C\CC[C@@]2(C)O[C@@H]2[C@H]2OC(=O)[C@@H](CN(C)C)[C@@H]2CC1?
GI50: 2.45 µM; TGI: 5.62 µM

With Oc1ccc(Cl)cc1Cc1cc(Cl)cc(Cl)c1O as the compound, how does the GI50 read?
The GI50 was 2.33 µM.

What about the TGI of the same compound?
Its TGI is 6.65 µM.

How did the GI50 turn out when C=C(C=O)C1CCC2(C(=O)O)CCC3(C)C(CCC4C5(C)CCC(O)C(C)(C)C5CCC43C)C12 (configuration not stated) was run?
Its GI50 is 2.83 µM.

And the TGI?
The TGI was 8.06 µM.

Which results are given for COc1ccc(N2C(=O)C(c3ccccc3)(c3ccccc3)C23C(=O)N(C)c2ccccc23)cc1 (configuration not stated)?
GI50: > 100 µM; TGI: > 100 µM

CC(C)=C[C@@H]1C[C@H](C)[C@H]2CC[C@H](C)C3=C2[C@](O)(OC3=O)[C@]1(C)O was tested. Which GI50 did it give?
The GI50 was > 100 µM.

What about the TGI of the same compound?
The TGI was > 100 µM.

With C/C(=C\CCc1ccoc1)CC/C=C(\C)CCCC1=CC(=O)OC1 as the compound, how does the GI50 read?
The GI50 was 13.2 µM.

And the TGI?
Its TGI is 40.1 µM.

How did the TGI turn out when O=c1c2ccccc2[se]n1-c1cccnc1 was run?
The TGI was 56.5 µM.

These compounds were tested on SK-MEL-28 melanoma (assay: NCI anticancer screen, dose series, 48 h).

How did the TGI turn out when CCCCc1c(OC)cc(O)c2c1C(=O)c1[nH]c(C(=O)O)c(O)c(=O)c1C2=O was run?
The TGI was > 100 µM.

What does the source list for CCN1CCN(c2ccc(Nc3cc(N(C)C(=O)Nc4c(Cl)c(OC)cc(OC)c4Cl)ncn3)cc2)CC1?
GI50: 1870 nM; TGI: 3.46 µM

What does the source list for CC(C)c1ccc(Nc2ccc3c(OCCCN4CCN(C)CC4)cccc3n2)cc1?
GI50: 1890 nM; TGI: 4.32 µM

Which GI50 does the source give for COc1ccc2c(c1)C(C)Cc1c(Cl)ncnc1N2C (configuration not stated) here?
Its GI50 is 368 nM.

What about the TGI of the same compound?
The TGI was 46.1 µM.

COCCOc1cc(F)c2c(Nc3ccc(NC(=O)Cn4cc(C(C)C)nn4)cc3)ncnc2c1 was tested. Which GI50 did it give?
The GI50 was > 100000 nM.

And the TGI?
The TGI was > 100 µM.

C#Cc1cccc(Nc2ncnc3cc(OC)c(OCCCCCCC(=O)NO)cc23)c1 was tested. Which GI50 did it give?
The GI50 was 136 nM.

And the TGI?
Its TGI is 1.47 µM.

How did the TGI turn out when Cc1nnc(S(=O)(=O)c2ccc(N=Nc3c(N)nc(N)nc3N)cc2)s1 was run?
Its TGI is > 100 µM.

What does the source list for O=c1n(CC2CO2)c(=O)n(CC2CO2)c(=O)n1CC1CO1 (configuration not stated)?
GI50: 22700 nM; TGI: 139 µM and > 100 µM

Which GI50 does the source give for Cc1ccc(C(SCC(N)C(=O)O)(c2ccccc2)c2ccc(C)cc2)cc1 (configuration not stated) here?
The GI50 was 2090 nM.

What about the TGI of the same compound?
The TGI was 23.7 µM.

With COc1cc(Nc2cn[nH]c2-c2ccc(Cl)cc2)cc(OC)c1OC as the compound, how does the GI50 read?
The GI50 was 6450 nM.

And the TGI?
Its TGI is 56.7 µM.
